≈ marks a conversion by molar mass, not a printed value. Like-named read-outs stand apart in the source and are kept apart here.
Assays:
[1] = system: E. coli; assay: MIC against E. coli in presence of 50 % human serum; format: cell-based; conditions: Escherichia coli, read-out: MICEc 50%HS
[2] = system: AlbAL; assay: Transcription activation (TA) reporter assay, pAlbA-ilux luminescence; format: cell-based, Klebsiella oxytoca; conditions: luminescence normalized to 2nd Gen albicidin 2
Procedure: Finally, we investigated if synthetic variations of building block A are able to evade the effects of the resistance protein AlbA. Therefore, we carried out a qualitative growth inhibition assay with derivatives 4–24 in presence of an equimolar amount of purified AlbAS. After incubation of the cultures overnight, the growth of the bacteria was evaluated. The ability of AlbAS to sufficiently sequester an albicidin derivative from the supernatant allowed E. coli cells to accumulate in a visible cell pellet. Second, we performed a quantitative transcription‐activation reporter assay[22] to assess transcriptional regulation by AlbAL. The promoter sequence pAlbA was inserted into a reporter vector that encodes the ilux luminescence cassette.[22] The luminescence signals elicited by ligand binding of synthetic variations to AlbAL was compared and normalized to the signal induced by 2nd Gen albicidin 2 and are hereby referred to as relative transcription activation (TA^%). The combination of both assays prompted us to categorize the experimental outcomes (Figure 4) in four groups:
Figure 4 Characterization of AlbA resistance against derivatives 2, 4–24. GIA: Qualitative growth inhibition assay against E. coli DSM 1116. (−): Derivative unable to inhibit the growth of E. coli in presence of AlbAS. (+): Derivative inhibits growth of E. coli in presence of AlbAS. […] For details see SI Figure 9. Transcription activation (TA) assay: luminescence elicited by 2nd Gen albicidin 2 from the TA assay was normalized to 100 % and the luminescence signal of tested derivatives provided: relative luminescence [%]=luminescence [derivative]/luminescence [2]×100 %. Green bars indicate low relative luminescence (<40 %) and red bars indicate high relative luminescence (>50 %). Error bars show the standard deviations of triplicate measurements. TEXT PRINTED IN THE PICTURE: 2: E. coli inhibition +AlbA: − | 4: E. coli inhibition +AlbA: + | 9: E. coli inhibition +AlbA: + | 11: E. coli inhibition +AlbA: + | 12: E. coli inhibition +AlbA: + | 13: E. coli inhibition +AlbA: ~ | 14: E. coli inhibition +AlbA: − | 16: E. coli inhibition +AlbA: − | 17: E. coli inhibition +AlbA: − | 18: E. coli inhibition +AlbA: − | 19: E. coli inhibition +AlbA: − | 20: E. coli inhibition +AlbA: + | 21: E. coli inhibition +AlbA: − | 22: E. coli inhibition +AlbA: − | 23: E. coli inhibition +AlbA: − | 24: E. coli inhibition +AlbA: − […]
Transcription activation (TA) assay
Transcription reporter assays were conducted as described previously.[4] In short, E. coli BL21(DE3) were transformed with pET15b-AlbA, an expression construct without His-tag, and pCS-pAlbA-ilux, a reporter vector containing the pAlbA promoter and the improved bacterial luciferase reporter gene cassette ILUX.[7] […] Sixty data points were measured on a TECAN Infinite 200 microplate reader, after orbital shaking with for 10 min, with an amplitude of 3 mm, and a wait time of one minute between each measurement. At each time point, the absorbance at 600 nm ([…] bandwidth and 25 flashes) and the luminescence (500 ms integration time, no attenuation) were measured. Each assay was measured in triplicate at 30°C. The luminescence data was normalized to the OD before the background signal (wells with no albicidin added) was subtracted and the mean + standard deviation of each measurement point was calculated. […]

[3] = system: panel of gram-positive and gram-negative bacteria; assay: MIC against panel of bacteria; format: cell-based; conditions: read-out: MIC vs B. subtilis and M. luteus
Procedure: After completing the syntheses, the antibacterial activity of A‐variations 4–24 was assessed by determination of MIC values against a basic set of gram‐negative and gram‐positive bacteria (Table 1). The monocyclic derivatives 4–8 featuring a cyano‐, trifluoromethyl‐, methoxy‐ and fluoro‐ substituent in para‐position were very active against the gram–negative E. coli and S. typhimurium strains with MIC values in the same range as 3rd Gen albicidin 3 or ciprofloxacin which is the gold standard for gyrase inhibitors. […] These findings are in agreement with previous studies showing good activities for cyano, trifluoromethyl, methoxy and fluoro substituents in the para‐position of different aromatic rings in the building block A.[12, 13] The activity of the monocyclic derivatives 4–8 against the gram‐positive strains B. subtilis and M. luteus were similar but slightly less pronounced compared to the lead structure 3.
1.1 Determination of Minimal Inhibitory Concentrations (MIC)
Minimal inhibitory concentration (MIC) against selected bacterial strains values were determined according to the ninth edition of the Approved Standard M07-A9.[1] 20 μL of cryo stocks of bacterial strains were suspended in 20 mL LB medium (Lysogeny broth: 10 g/L peptone, 5 g/L yeast extract, 5 g/L NaCl). Following incubation overnight at 37°C, 200 rpm, the test inoculum was adjusted by 0.5 McFarland Standard in cation adjusted Mueller-Hinton broth (BBLTM Mueller-Hinton Broth II, Becton, Dickinson and Company, New Jersey, USA) to approximately 1x10^6 CFU mL-1. 95 μL of the bacterial inoculum were applied per well of a 96-well plate. Albicidin and albicidin derivatives 3−24 were dissolved in DMSO (100%) to an initial concentration of 2560 μg/mL and serially diluted in DMSO (100%). Initial solution and serial dilutions of Ciprofloxacin were prepared in 0.1 N HCL, respectively. […] Both microdilution trays and agar plates were incubated at 30−37°C for 16 h and subsequently analyzed for growth inhibition by naked eye. […]

[4] = E. coli in presence of 50 % human serum
[5] = gram-positive bacteria B. subtilis and M. luteus

Row | Structure (SMILES) | MIC [1, 4] [µg/mL] | relative transcription activation (TA%), in words [2] | other results
1 | COc1c(NC(=O)c2ccc(NC(=O)c3ccc(NC(=O)[C@H](Cc4c[nH]nn4)NC(=O)c4ccc(NC(=O)c5ccc6nn[nH]c6c5)cc4)cn3)c(OC)c2O)ccc(C(=O)O)c1O [compound 24] | 2 | low | –
2 | COc1c(NC(=O)c2ccc(NC(=O)c3ccc(NC(=O)[C@H](Cc4c[nH]nn4)NC(=O)c4ccc(NC(=O)[C@@H](C)Oc5ccc(O)cc5)cc4)cn3)c(OC)c2O)ccc(C(=O)O)c1O [compound 9] | ≥ 8 | – | –
3 | COc1c(NC(=O)c2ccc(NC(=O)c3ccc(NC(=O)[C@H](Cc4c[nH]nn4)NC(=O)c4ccc(NC(=O)c5cc6cc(O)ccc6[nH]5)cc4)cn3)c(OC)c2O)ccc(C(=O)O)c1O [compound 21] | ≥ 8 | intermediate | –
4 | COc1c(NC(=O)c2ccc(NC(=O)c3ccc(NC(=O)[C@H](Cc4c[nH]nn4)NC(=O)c4ccc(NC(=O)c5ccc6nc[nH]c6c5)cc4)cn3)c(OC)c2O)ccc(C(=O)O)c1O [compound 23] | ≥ 8 | low | –
5 | COc1c(NC(=O)c2ccc(NC(=O)c3ccc(NC(=O)[C@H](Cc4c[nH]nn4)NC(=O)c4ccc(NC(=O)c5cc(=O)c6cc(F)ccc6o5)cc4)cn3)c(OC)c2O)ccc(C(=O)O)c1O [compound 20] | 8 | – | –
6 | COc1c(NC(=O)c2ccc(NC(=O)c3ccc(NC(=O)[C@H](Cc4c[nH]nn4)NC(=O)c4ccc(NC(=O)c5cc6ccccc6cn5)cc4)cn3)c(OC)c2O)ccc(C(=O)O)c1O [compound 12] | – | – | MIC [1]: 1 µg/mL; MIC [3]: 0.063 µg/mL (≈ 0.0715 µM)
7 | COc1c(NC(=O)c2ccc(NC(=O)c3ccc(NC(=O)[C@H](Cc4c[nH]nn4)NC(=O)c4ccc(NC(=O)c5ccc6ccccc6n5)cc4)cn3)c(OC)c2O)ccc(C(=O)O)c1O [compound 11] | 2 | – | MIC [3, 5]: ≤ 0.016 µg/mL
8 | CCn1cc(C(=O)Nc2ccc(C(=O)N[C@@H](Cc3c[nH]nn3)C(=O)Nc3ccc(C(=O)Nc4ccc(C(=O)Nc5ccc(C(=O)O)c(O)c5OC)c(O)c4OC)nc3)cc2)c(=O)c2cc3c(cc21)OCO3 [compound 19] | – | low | –
9 | COc1c(NC(=O)c2ccc(NC(=O)c3ccc(NC(=O)[C@H](Cc4c[nH]nn4)NC(=O)c4ccc(NC(=O)c5cnc6ccccc6c5)cc4)cn3)c(OC)c2O)ccc(C(=O)O)c1O [compound 13] | – | – | MIC [3, 5]: 0.125 µg/mL (≈ 0.142 µM)
10 | COc1c(NC(=O)c2ccc(NC(=O)c3ccc(NC(=O)[C@H](Cc4c[nH]nn4)NC(=O)c4ccc(NC(=O)c5ccc(C#N)cc5)cc4)cn3)c(OC)c2O)ccc(C(=O)O)c1O [compound 4] | 1 | – | –
11 | CCn1cc(C(=O)Nc2ccc(C(=O)N[C@@H](Cc3c[nH]nn3)C(=O)Nc3ccc(C(=O)Nc4ccc(C(=O)Nc5ccc(C(=O)O)c(O)c5OC)c(O)c4OC)nc3)cc2)c(=O)c2ccc(C)nc21 [compound 18] | 8 | low | –
12 | COc1c(NC(=O)c2ccc(NC(=O)c3ccc(NC(=O)[C@H](Cc4c[nH]nn4)NC(=O)c4ccc(NC(=O)c5ccc6ncccc6c5)cc4)cn3)c(OC)c2O)ccc(C(=O)O)c1O [compound 14] | 4 | – | –
13 | COc1c(NC(=O)c2ccc(NC(=O)c3ccc(NC(=O)[C@H](Cc4c[nH]nn4)NC(=O)c4ccc(NC(=O)c5ccc6ncsc6c5)cc4)cn3)c(OC)c2O)ccc(C(=O)O)c1O [compound 22] | 0.5 | – | –

— article PMC11979685, “Synthesis of Derivatives of the Antibiotic Albicidin: The N‐Terminal Fragment as Key to Control Potency and Resistance Mediated by the Binding Protein AlbA” (Chemistry (Weinheim an Der Bergstrasse, Germany), 2025)
